Experimental data: patent EP0286926A2, “Semi-synthetic rhodomycins, method for their preparation and their use as cytostatics” (BEHRINGWERKE Aktiengesellschaft, priority 1987, dated 1988)
≈ marks a conversion by molar mass, not a printed value. Where two headings read alike, the source gives them in different places.

System: L1210 Leukämiezellen
Experiment: Colony formation of L1210 leukemia cells in soft agar
Format: cell-based, Maus
Conditions: for IC50: Mus musculus; for zytostatische Wirksamkeit: statement in words, compared with Adriamycin
Excerpt: Die zytostatische Wirksamkeit der erfindungsgemäßen Verbindungen wurde anhand von L1210 Leukämiezellen der Maus getestet. Hierzu wurde die Koloniebildung von L1210 Leukämiezellen in Agarplatten herangezogen. Diese Methode dient zum Nachweis des Einflusses der Testsubstanzen auf das Wachstumsverhalten der Zellen nach Inkubation von 1 Stunde oder über mehrere Generationen. Bei einer Zelzykluszeit von 10-12 Stunden werden dabei in der Testzeit von 7 Tagen etwa 14 aufeinanderfolgende Generationen beobachtet. Die erfindungsgemäßen zytostatisch wirksamen Substanzen bewirken in diesem Test eine Reduktion der zu beobachtenden Koloniezahl gegenüber einer unbehandelten Kontrollprobe.
Einzelheiten des Testverfahrens ergeben sich aus der nachfolgenden Verfahrensweise zur Ermittlung der Koloniebildung.
Verfahrensweise zur Ermittlung der Koloniebildung von L1210 Leukämiezellen in Soft-Agar
500 Leukämiezellen pro Platte wurden mit unterschiedlichen Konzentrationen der Testsubstanz 1 Stunde bei 37°C inkubiert. Anschließend wurden die Zellen zweimal mit McCoy5A-Medium gewaschen und schließlich in Petrischalen nach Zugabe von 0,3 % Agar ausgegossen. Kontrollen wurden lediglich mit frischem Medium inkubiert. Anstelle der einstündigen Inkubation wurden in manchen Fällen unterschiedliche Konzentrationen und Testsubstanzen der oberen Agarschicht zugemischt, um so eine kontinuierliche Exposition der Zellen über die gesamte Inkubationszeit zu erreichen. Nach Erstarren des Agars wurden die Platten im Brutschrank 7 Tage bei 37°C inkubiert (5 Vol.-% CO₂, 94 % relative Luftfeuchtigkeit). Anschließend wurde die Zahl der entstandenen Kolonien mit einem Durchmesser von mehr als 60 µm gezählt. Die Ergebnisse wurden angegeben als Koloniezahl in behandelten Agarplatten in Prozent der unbehandelten Kontrolle. Aus der so erhaltenen Dosiswirkungskruve wurde die IC₅₀ als Maß für die Wirksamkeit der Substanz ermittelt. Die Ergebnisse für die hier beschriebenen Verbindungen im Vergleich zu Adriamycin sind in der nachfolgenden Tabelle 1 zusammengefaßt.

[1] = L1210, 168 h, read-out: Dauerinkubation IC50
[2] = L1210, read-out: 1h-Inkubation IC50
[3] = L1210, 168 h, continuous exposure: substance mixed into upper agar layer for the whole 7-day incubation at 37°C, colonies > 60 µm counted, percent of untreated control, read-out: Dauerinkubation IC50
[4] = L1210, 1 h incubation with substance at 37°C, cells washed twice, then plated in 0,3 % agar for 7 days, colonies > 60 µm counted, read-out: 1h-Inkubation IC50
[5] = 1 h incubation with substance at 37°C, cells washed twice, then plated in 0,3 % agar for 7 days, colonies > 60 µm counted
[6] = continuous exposure: substance mixed into upper agar layer for the whole 7-day incubation at 37°C, colonies > 60 µm counted, percent of untreated control

Structure (SMILES)	IC50 [3] [µg/mL]	IC50 [4] [µg/mL]	further results
COc1cccc2c1C(=O)c1c(O)c3c(c(O)c1C2=O)C[C@@](O)(C(=O)CO)C[C@@H]3O[C@H]1C[C@H](N)[C@H](O)[C@H](C)O1 [Adriamycin, reference compound]			IC50 [1]: 0.02 µg/mL (≈ 0.0368 µM); IC50 [2]: 0.04 µg/mL (≈ 0.0736 µM)
CC[C@@]1(O)C[C@H](O)c2c(O)c3c(c(O)c2[C@H]1O[C@H]1C[C@H](NC(=O)C(F)(F)F)[C@@H](OC(=O)c2ccc([N+](=O)[O-])cc2)[C@H](C)O1)C(=O)c1cccc(O)c1C3=O [Beispiel 8, 10-0-(4-0-Paranitrobenzoyl-3-N-trifluor-acetyl-α-L-acosaminyl)-β-rhodomycinon]	> 1	> 1	
CC[C@@]1(O)C[C@H](O)c2c(O)c3c(c(O)c2[C@H]1O[C@H]1C[C@H](NC(=O)C(F)(F)F)[C@H](OC(=O)c2ccc([N+](=O)[O-])cc2)[C@H](C)O1)C(=O)c1cccc(O)c1C3=O [Beispiel 9, 10-0-(4-0-Paranitrobenzoyl-3-N-trifluoracetyl-α-L-daunosaminyl)-β-rhodomycinon]	0.6 (≈ 0.789 µM)	> 10	
CC[C@@]1(O)C[C@H](O)c2c(O)c3c(c(O)c2[C@H]1O[C@H]1C[C@H](N)[C@@H](O)[C@H](C)O1)C(=O)c1cccc(O)c1C3=O [Beispiel 10, 10-0-α-L-Acosaminyl-β-rhodomycinon]	0.9 (≈ 1.75 µM)	6.5 (≈ 12.6 µM)	
CC[C@@]1(O)C[C@H](O)c2c(O)c3c(c(O)c2[C@H]1O[C@H]1C[C@H](N)[C@H](O)[C@H](C)O1)C(=O)c1cccc(O)c1C3=O [Beispiel 11, 10-0-α-L-Daunosaminyl-β-rhodomycinon]	> 1	> 1	
CC[C@@]1(O)C[C@H](O)c2c(O)c3c(c(O)c2[C@H]1O[C@H]1C[C@H](N(C)C)[C@@H](O)[C@H](C)O1)C(=O)c1cccc(O)c1C3=O [Beispiel 12, 10-0-(3-N,N-Dimethyl-α-L-acosaminyl)-β-rhodomycinon]	0.5 (≈ 0.92 µM)	> 1	
CC[C@@]1(O)C[C@H](O[C@H]2C[C@H](NC(=O)C(F)(F)F)[C@@H](OC(=O)c3ccc([N+](=O)[O-])cc3)[C@H](C)O2)c2c(O)c3c(c(O)c2[C@H]1OC(=O)C(F)(F)F)C(=O)c1cccc(O)c1C3=O [Beispiel 13, 7-0-(4-0-Paranitrobenzoyl-3-N-trifluoracetyl-α-L-acosaminyl)-10-0-trifluoracetyl-β-rhodomycinon]	0.03 (≈ 0.035 µM)	> 1	
CC[C@@]1(O)C[C@H](O[C@H]2C[C@H](NC(=O)C(F)(F)F)[C@@H](OC(=O)c3ccc([N+](=O)[O-])cc3)[C@H](C)O2)c2c(O)c3c(c(O)c2[C@H]1O)C(=O)c1cccc(O)c1C3=O [Beispiel 14, 7-0-(4-0-Paranitrobenzoyl-3-N-trifluoracetyl-α-L-acosaminyl)-β-rhodomycinon]	0.024 (≈ 0.0316 µM)	> 1	
CC[C@@]1(O)C[C@H](O[C@H]2C[C@H](N)[C@@H](O)[C@H](C)O2)c2c(O)c3c(c(O)c2[C@H]1O)C(=O)c1cccc(O)c1C3=O [Beispiel 15, 7-0-α-L-Acosaminyl-β-rhodomycinon]	0.004 (≈ 0.00776 µM)	0.02 (≈ 0.0388 µM)	zytostatische Wirksamkeit: vergleichbar
CC[C@@]1(O)C[C@H](O[C@H]2C[C@H](N(C)C)[C@@H](O)[C@H](C)O2)c2c(O)c3c(c(O)c2[C@H]1O)C(=O)c1cccc(O)c1C3=O [Beispiel 16, 7-0-(3-N,N-Dimethyl-α-L-acosaminyl)-β-rhodomycinon]			IC50 [1]: 0.006 µg/mL (≈ 0.011 µM); IC50 [2]: 0.02 µg/mL (≈ 0.0368 µM); zytostatische Wirksamkeit: vergleichbar
CC[C@@]1(O)C[C@H](O[C@H]2C[C@H](NCC#N)[C@H](O)[C@H](C)O2)c2c(O)c3c(c(O)c2[C@H]1O)C(=O)c1cccc(O)c1C3=O [Beispiel 17, 7-O-(3-N-Cyanomethyl-α-L-daunosaminyl)-β-rhodomycinon]			IC50 [1]: 0.004 µg/mL (≈ 0.00721 µM); IC50 [2]: 0.09 µg/mL (≈ 0.162 µM)
CC[C@@]1(O)C[C@H](O[C@H]2C[C@H](NC(=O)C(F)(F)F)[C@H](OC(=O)c3ccc([N+](=O)[O-])cc3)[C@H](C)O2)c2c(O)c3c(c(O)c2[C@H]1OC(=O)C(F)(F)F)C(=O)c1cccc(O)c1C3=O [Beispiel 18, 7-O-(4-O-Paranitrobenzoyl-3-N-trifluoracetyl-α-L-daunosaminyl)-10-O-trifluoracetyl-β-rhodomycinon]	0.13 (≈ 0.152 µM)	> 1	
CC[C@@]1(O)C[C@H](O[C@H]2C[C@H](NC(=O)C(F)(F)F)[C@H](OC(=O)c3ccc([N+](=O)[O-])cc3)[C@H](C)O2)c2c(O)c3c(c(O)c2[C@H]1O)C(=O)c1cccc(O)c1C3=O [Beispiel 19, 7-O-(4-O-Paranitrobenzoyl-3-N-trifluoracetyl-α-L-daunosaminyl)-β-rhodomycinon]	0.11 (≈ 0.145 µM)	> 1	
CC[C@@]1(O)C[C@H](O[C@H]2C[C@H](N)[C@H](O)[C@H](C)O2)c2c(O)c3c(c(O)c2[C@H]1OC1CCCCO1)C(=O)c1cccc(O)c1C3=O (stereo partly drawn) [Beispiel 21, 7-O-α-L-Daunosaminyl-10-O-tetrahydropyranyl-β-rhodomycinon]			1h-Inkubation IC50 [5]: >1 µg/mL; Dauerinkubation IC50 [6]: 0.5 µg/mL
CC[C@@]1(O)C[C@H](O[C@@H]2O[C@@H](C)[C@@H](OC(C)=O)[C@@H](OC(C)=O)[C@H]2I)c2c(O)c3c(c(O)c2[C@H]1OC1CCCCO1)C(=O)c1cccc(O)c1C3=O (stereo partly drawn) [Beispiel 24, 7-O-(3,4-Di-O-acetyl-2,6-didesoxy-2-iodo-α-L-talopyranosyl)-10-O-tetrahydropyranyl-β-rhodomycinon]			1h-Inkubation IC50 [5]: >1 µg/mL; Dauerinkubation IC50 [6]: >1 µg/mL
CC[C@@]1(O)C[C@H](O[C@@H]2O[C@@H](C)[C@H](OC(C)=O)[C@@H](OC(C)=O)[C@H]2I)c2c(O)c3c(c(O)c2[C@H]1OC1CCCCO1)C(=O)c1cccc(O)c1C3=O (stereo partly drawn) [Beispiel 25, 7-O-(3,4-Di-O-acetyl-2,6-didesoxy-2-iodo-α-L-mannopyranosyl)-10-O-tetrahydropyranyl-β-rhodomycinon]			1h-Inkubation IC50 [5]: >1 µg/mL; Dauerinkubation IC50 [6]: >1 µg/mL
CC[C@@]1(O)C[C@H](O[C@H]2C[C@H](NC(=O)C(F)(F)F)[C@H](OC(=O)c3ccc([N+](=O)[O-])cc3)[C@H](C)O2)c2c(O)c3c(c(O)c2[C@H]1O[C@@H]1C[C@H](NC(=O)C(F)(F)F)[C@H](OC(=O)c2ccc([N+](=O)[O-])cc2)[C@H](C)O1)C(=O)c1cccc(O)c1C3=O [Beispiel 27, 7,10-Di-O-(4-O-paranitrobenzoyl-3-N-trifluoracetyl-α-L-daunosaminyl)-β-rhodomycinon]			1h-Inkubation IC50 [5]: >1 µg/mL; Dauerinkubation IC50 [6]: >1 µg/mL
CC[C@@]1(O)C[C@H](O[C@H]2C[C@H](NC(=O)C(F)(F)F)[C@H](OC(C)=O)[C@H](C)O2)c2c(O)c3c(c(O)c2[C@H]1O[C@H]1C[C@H](NC(=O)C(F)(F)F)[C@H](OC(C)=O)[C@H](C)O1)C(=O)c1cccc(O)c1C3=O [Beispiel 28, 7,10-Di-O-(4-O-acetyl-3-N-trifluoracetyl-α-L-daunosaminyl)-β-rhodomycinon]	> 1	> 1	
CC[C@@]1(O)C[C@H](O[C@H]2C[C@H](N)[C@H](O)[C@H](C)O2)c2c(O)c3c(c(O)c2[C@H]1O[C@H]1C[C@H](N)[C@H](O)[C@H](C)O1)C(=O)c1cccc(O)c1C3=O [Beispiel 29, 7,10-Di-O-α-L-daunosaminyl-β-rhodomycinon]	> 10	> 1	
CC[C@@]1(O)C[C@H](O[C@H]2C[C@H](NCC#N)[C@H](O)[C@H](C)O2)c2c(O)c3c(c(O)c2[C@H]1O[C@H]1C[C@H](NCC#N)[C@H](O)[C@H](C)O1)C(=O)c1cccc(O)c1C3=O [Beispiel 30, 7,10-O-Di-(3-N-Cyanomethyl-α-L-daunosaminyl)-β-rhodomycinon]			IC50 [1]: 0.5 µg/mL (≈ 0.692 µM); IC50 [2]: > 1 µg/mL
CC[C@@]1(O)C[C@H](O[C@H]2C[C@H](N)[C@@H](O)[C@H](C)O2)c2c(O)c3c(c(O)c2[C@H]1O[C@H]1C[C@H](N)[C@@H](O)[C@H](C)O1)C(=O)c1cccc(O)c1C3=O [Beispiel 33, 7,10-Di-O-α-L-acosaminyl-β-rhodomycinon]	> 1	> 1	
CC[C@@]1(O)C[C@H](O[C@H]2C[C@H](N(C)C)[C@@H](O)[C@H](C)O2)c2c(O)c3c(c(O)c2[C@H]1O[C@H]1C[C@H](N(C)C)[C@@H](O)[C@H](C)O1)C(=O)c1cccc(O)c1C3=O [Beispiel 34]			IC50 [1]: 0.026 µg/mL (≈ 0.0371 µM); IC50 [2]: 0.09 µg/mL (≈ 0.128 µM)
CC[C@@]1(O)C[C@H](O[C@H]2C[C@H](NC(=O)C(F)(F)F)[C@@H](OC(=O)c3ccc([N+](=O)[O-])cc3)[C@H](C)O2)c2c(O)c3c(c(O)c2[C@H]1O[C@H]1C[C@H](NC(=O)C(F)(F)F)[C@H](OC(=O)c2ccc([N+](=O)[O-])cc2)[C@H](C)O1)C(=O)c1cccc(O)c1C3=O [Beispiel 35, 7-0-(4-0-Paranitrobenzoyl-3-N-trifluoracetyl-α-L-acosaminyl)-10-0-(4-0-paranitrobenzoyl-3-N-trifluoracetyl-α-L-daunosaminyl)-β-rhodomycinon]			IC50 [1]: > 1 µg/mL; IC50 [2]: > 1 µg/mL
